Data on 1 compound can be found in patent US20040220221A1, “Treatment of degenerative diseases” (priority 2002, published 2004).

This test concerns experimentally induced osteoarthritis. The experiment in a line: experimentally induced osteoarthritis in guinea pigs (partial medial meniscectomy), joint histology. As to conditions: 1, 3 and 10 mg/kg/day orally by gavage, 10 weeks, operated right hind leg joint, blinded pathologist. In kind it is in vivo, Dunkin Hartley guinea pigs. The protocol:
The following description gives evidence on which the invention is based.
Dunkin Hartley guinea pigs(apart from the blank control) were anaesthetised and underwent partial medial meniscectomy in the right hind leg. 3 doses of +mefloquine, (1 mg/kg/day, 3 mg/kg/day and 10 mg/kg/day) were administered orally by gavage to groups of 10 animals as well as a vehicle control. The vehicle was 0.2% methylcellulose and 0.4% Tween 80 in bidistilled water for the mefloquine groups. The administration volume was 2 mL/kg.
The animals were followed for 10 weeks. Terminal blood samples were taken for drug levels. Histology was performed on the joint, which was operated on, and an assessment of the cartilage structure, cell proliferation and loss of proteoglycans was made. The histology was performed by a blinded pathologist.

With `O[C@H](c1cc(C(F)(F)F)nc2c(C(F)(F)F)cccc12)[C@@H]1CCCCN1` [+mefloquine, (+)-erythro-mefloquine], the “degeneration of cartilage (histology: cartilage structure, cell proliferation, loss of proteoglycans)” value is given as “prevents the degeneration of cartilage”.
